According to patent publication US12728121B2, “Compositions and methods for treating idiopathic pulmonary fibrosis” (Seyltx, Inc., priority 2019, dated 2026):

Columns and labels:
Type in all cases: in vivo, Mouse/C57BL/6
BLM-induced fibrosis [1] = experiment: Bleomycin (BLM)-induced lung fibrosis in mice: Gomori's Trichrome score of lung sections; conditions: for Trichrome score (average) / % reduction in fibrosis: day 21; for Trichrome score (average): BLM 2.5 U/kg intratracheal, p.o. once daily 14 days from day 7, mg/kg: Pirfenidone 300, Bromantane 20, Ifenoprodil 30, Radiprodil 30, Bemithyl 200, Dexamethasone 0.25, Repirinast 90, Normal 1.00, Vehicle 4.59; for % reduction in fibrosis: from Trichrome scores relative to vehicle and normal groups, doses as Table 1, p.o. once daily 14 days
Method: (§1) The mouse species or strain was Mouse/C57BL/6, the mice being 8-10 week old males. Nine groups of 10 mice each were obtained from Charles River Laboratories. Each group was randomized based on body weight. Bleomycin (BLM) was obtained from Euroasias.
(§2) The mice were anesthetized with isoflurane/O2 mixture. Bleomycin (BLM) was then administered to the mice intratracheally (PennCentury)—single bolus, at 2.5 U/kg body weight in 50 μl sterile saline.
(§3) Seven days after the bleomycin is administered, and fibroblasts have generally proliferated, six of the nine groups of IT bleomycin challenged mice were be dosed orally (p.o.) once a day with Bromantane, Ifenoprodil, Radiprodil, Bemithyl, Dexamethasone, or Repirinast at specified amounts per kg of body weight (mg/kg) daily for 14 consecutive days. The amounts are set out in Table 1 below. The vehicle used was 0.5% carboxymethyl cellulose (CMC). Prifenidone was also prepared in 0.5% CMC and administrated orally once a day to one of the nine IT bleomycin challenged mice groups beginning for 14 consecutive days. Vehicle and no-BLM control groups received 0.5% CMC orally for 14 consecutive days.
On day 21 of the study, 4 hours after the last dose, the mice were sacrificed and plasma was collected and frozen for cytokine analysis (testing for IL-6, IL-12, TGFβ, IL-13 proteins, or fibrosis markers). Bronchoalveolar lavage fluid (BALF) was collected and frozen for optional cytokine analyses and cell counts pending the initial data. The lungs were then excised, weighed and fixed in formalin. Gomori's Trichrome stain, a histological stain, was used to determine collagen content.
Trichrome Score: A trichrome score measures the level of scarring to the lungs caused by the disease. The greater the trichrome score, the greater the scarring.
Formalin fixed lung samples were submitted to affiliated histopathology laboratory for histopathological analysis subjected Gomori's Trichrome stain, a histological stain, which was used to determine collagen content.
Each lung was divided into ten sections. All ten sections were stained and evaluated. A board certified veterinarian pathologist assessed the presence of lung fibrosis and severity score—The expression of collagen (associated with fibrosis) is determined from the ratio of the stained area versus the total area of the lung section.

BLM-induced fibrosis [2] = experiment: Bleomycin (BLM)-induced lung fibrosis in mice: mortality rate over 21 days; conditions: doses as Table 1; for Fatality Number: deaths/mice per group over 21 days, Vehicle 2/10; for Percent Fatality: over 21 days, Vehicle 20%
Method: as §1, §2, §3
Mortality Rate: the mortality rate in each group was also observed over 21 days.

[3] = Bleomycin (BLM)-induced lung fibrosis in mice: body weight over 21 days; conditions: for Percent Change in Body Weight / Body Weight: doses as Table 1; for Body Weight: group mean; for changes in body weight as compared to the BLM-vehicle group (in words): doses as Table 1, p.o. once daily
Method: as §1, §2, §3
Body Weight: The body weights were measured over 21 days using a laboratory balance.

[4] = doses as Table 1, order: Dexamethasone and Repirinast, followed by Ifenprodil and Radiprodil

In the case of `CCSc1nc2ccccc2[nH]1` [Bemithyl, 2-Ethylsulfanyl-1H-benzoimidazole], the “Trichrome score (average)” value (BLM-induced fibrosis [1]) is reported as 4.14, the “% reduction in fibrosis” value (BLM-induced fibrosis [1]) is reported as 12.5% and the “Fatality Number” value (BLM-induced fibrosis [2]) is reported as 1/10. The “Percent Fatality” value (BLM-induced fibrosis [2]) was 10%, the “Percent Change in Body Weight” value ([3]; 7-Nov) was 0.0% and the “Body Weight” value ([3]; 7-Nov) was 24.6 g. The “Percent Change in Body Weight” value ([3]; 8-Nov) was 0.0%, the “Body Weight” value ([3]; 8-Nov) was 24.7 g and the “Percent Change in Body Weight” value ([3]; 9-Nov) was −0.6%. The “Body Weight” value ([3]; 9-Nov) was 24.1 g, the “Percent Change in Body Weight” value ([3]; 12-Nov) was −1.6% and the “Body Weight” value ([3]; 12-Nov) was 23.0 g. For the same compound, the “Percent Change in Body Weight” value ([3]; 14-Nov) was −1.1%, the “Body Weight” value ([3]; 14-Nov) was 23.5 g and the “Percent Change in Body Weight” value ([3]; 16-Nov) was −1.7%. The “Body Weight” value ([3]; 16-Nov) was 22.9 g, the “Percent Change in Body Weight” value ([3]; 20-Nov) was −1.6% and the “Body Weight” value ([3]; 20-Nov) was 23.1 g. For the same compound, the “Percent Change in Body Weight” value ([3]; 22-Nov) was −0.6%, the “Body Weight” value ([3]; 22-Nov) was 24.0 g and the “Percent Change in Body Weight” value ([3]; 26-Nov) was −0.9%. For the same compound, the “Body Weight” value ([3]; 26-Nov) was 23.7 g, the “Percent Change in Body Weight” value ([3]; 28-Nov) was −0.3% and the “Body Weight” value ([3]; 28-Nov) was 24.3 g. The “changes in body weight as compared to the BLM-vehicle group (in words)” value (“changes in body weight” below) [3] was “showed improvement beginning on Day 5”.

With `Brc1ccc(NC2C3CC4CC(C3)CC2C4)cc1` (stereo not shown) [Bromantane, N-(4-bromophenyl)adamantan-2-amine] the “Trichrome score (average)” value (BLM-induced fibrosis [1]) was 4.00, the “% reduction in fibrosis” value (BLM-induced fibrosis [1]) was 16.4% and the “Fatality Number” value (BLM-induced fibrosis [2]) was 3/10. For the same compound, the “Percent Fatality” value (BLM-induced fibrosis [2]) was 30%, the “Percent Change in Body Weight” value ([3]; 7-Nov) was 0.0% and the “Body Weight” value ([3]; 7-Nov) was 24.8 g. The “Percent Change in Body Weight” value ([3]; 8-Nov) was −0.1%, the “Body Weight” value ([3]; 8-Nov) was 24.7 g and the “Percent Change in Body Weight” value ([3]; 9-Nov) was −0.8%. For the same compound, the “Body Weight” value ([3]; 9-Nov) was 24.0 g, the “Percent Change in Body Weight” value ([3]; 12-Nov) was −1.8% and the “Body Weight” value ([3]; 12-Nov) was 23.1 g. For the same compound, the “Percent Change in Body Weight” value ([3]; 14-Nov) was −1.1%, the “Body Weight” value ([3]; 14-Nov) was 23.7 g and the “Percent Change in Body Weight” value ([3]; 16-Nov) was −1.5%. The “Body Weight” value ([3]; 16-Nov) was 23.3 g, the “Percent Change in Body Weight” value ([3]; 20-Nov) was −1.9% and the “Body Weight” value ([3]; 20-Nov) was 22.9 g. For the same compound, the “Percent Change in Body Weight” value ([3]; 22-Nov) was −1.6%, the “Body Weight” value ([3]; 22-Nov) was 23.2 g and the “Percent Change in Body Weight” value ([3]; 26-Nov) was −1.0%. The “Body Weight” value ([3]; 26-Nov) was 23.8 g, the “Percent Change in Body Weight” value ([3]; 28-Nov) was 0.4% and the “Body Weight” value ([3]; 28-Nov) was 25.2 g. For the same compound, the “changes in body weight” value [3] was “showed improvement beginning Day 5, with the exception of Day 15”.

With `Cc1ccc2c([nH]c(=O)c3c(=O)cc(C(=O)OCCC(C)C)oc32)c1C` [Repirinast, Isopentyl 7,8-dimethyl-4,5-dioxo-5,6-dihydro-4H-pyrano[3,2-c]quinoline-2-carboxylate] the “Trichrome score (average)” value (BLM-induced fibrosis [1]) was 3.16, the “Trichrome score response versus BLM-vehicle group (in words)” value (BLM-induced fibrosis [1]; [4]) was “response was better” and the “percent reduction in lung fibrosis in comparison to the BLM-vehicle group (in words)” value (BLM-induced fibrosis [1]; [4]) was “higher”. The “% reduction in fibrosis” value (BLM-induced fibrosis [1]) was 39.8%, the “improvement in lung fibrosis, loss of body weight, Trichrome score and mortality as compared to BLM-vehicle (conclusion, in words)” value (BLM-induced fibrosis [1]; oral administration, Dexamethasone 0.25, Repirinast 90, Ifenprodil 30, Radiprodil 30 mg/kg) was “showed improvement” and the “Fatality Number” value (BLM-induced fibrosis [2]) was 1/10. The “percent survival (in words)” value (BLM-induced fibrosis [2]; order: Dexamethasone and Repirinast, followed by Ifenprodil and Radiprodil) was “higher”, the “Percent Fatality” value (BLM-induced fibrosis [2]) was 10% and the “Percent Change in Body Weight” value ([3]; 7-Nov) was 0.0%. For the same compound, the “Body Weight” value ([3]; 7-Nov) was 23.5 g, the “Percent Change in Body Weight” value ([3]; 8-Nov) was 0.2% and the “Body Weight” value ([3]; 8-Nov) was 23.7 g. The “Percent Change in Body Weight” value ([3]; 9-Nov) was −0.3%, the “Body Weight” value ([3]; 9-Nov) was 23.2 g and the “Percent Change in Body Weight” value ([3]; 12-Nov) was −2.0%. For the same compound, the “Body Weight” value ([3]; 12-Nov) was 21.5 g, the “Percent Change in Body Weight” value ([3]; 14-Nov) was −1.8% and the “Body Weight” value ([3]; 14-Nov) was 21.8 g. The “Percent Change in Body Weight” value ([3]; 16-Nov) was −2.5%, the “Body Weight” value ([3]; 16-Nov) was 21.1 g and the “Percent Change in Body Weight” value ([3]; 20-Nov) was −2.2%. The “Body Weight” value ([3]; 20-Nov) was 21.4 g, the “Percent Change in Body Weight” value ([3]; 22-Nov) was −1.3% and the “Body Weight” value ([3]; 22-Nov) was 22.3 g. For the same compound, the “Percent Change in Body Weight” value ([3]; 26-Nov) was −1.6%, the “Body Weight” value ([3]; 26-Nov) was 21.9 g and the “Percent Change in Body Weight” value ([3]; 28-Nov) was −1.3%. For the same compound, the “Body Weight” value ([3]; 28-Nov) was 22.3 g and the “changes in body weight” value [3] was “No significant differences”.
